Measured values reported in patent US5945401A, “Peptide analogues of the 65KD isoform of human glutamic acid decarboxylase and uses thereof” (priority 1995, dated 1999).

Columns and labels:
[1] = system: T cells from transgenic NOD mice expressing the human DQβ1*0302 gene; experiment: Proliferation of T cells from transgenic NOD mice expressing human DQβ1*0302; assay type: cell-based; conditions: T cells from DQβ1*0302 transgenic NOD mice
Excerpt: Type 1 diabetes is associated with the HLA DQβ1*0302 allele (Nepom and Erlich, Ann. Rev. Immunol. 9:493-525, 1991). Transgenic NOD mice expressing the human DQβ1*0302 gene were constructed. […] Thus, these peptides are recognized by T cells in the context of DQβ1*0302 and are additional peptides suitable for use in the present invention.

[2] = system: T cells from Type 1 diabetic patients and healthy controls; experiment: T cell proliferation assay with GAD 65 peptides (epitope mapping in patients, controls, co-twins); assay type: cell-based, human; conditions: patients compared with controls
Procedure: FIG. 2 is a graph illustrating the T cell proliferative responses to peptides corresponding to various regions of GAD 65. Responses to peptides (5 μg/ml) in 5-7 Type 1 diabetic patients (solid bars) and 4-5 healthy controls (hatched bars) are expressed by the number of responders (y-axis). Background counts were normally between 600 and 3000 cpm, while positive wells had to exceed 1500 and 6000 cpm respective to background counts.
A major focus of research into autoimmunity is the identification of dominant epitopes on disease-associated auto-antigens recognized by autoreactive T cells. Immunodominant regions of the antigen GAD 65 have been identified in Type 1 diabetic patients (Lohmann et al., Lancet 343:1607-08, 1994; Atkinson et al., J Clin. Invest. 94:2125-2129, 1994). Within the subject invention, a detailed T cell epitope mapping of immunodominant regions in patients with Type 1 diabetes was performed. Two regions of GAD 65 were selected for decoding, representing the regions associated with the highest frequency of T cell responses in both Type 1 diabetics (amino acid residues 473-555 and 161-243) and control subjects (amino acid residues 161-243) (FIGS. 2 and 4). Nine diabetics who responded to region 473-555 were selected for further study of their response to 18 single peptides covering this region. […]

## GAD 65 native protein: 65 kD isoform of human glutamic acid decarboxylase, native protein
[1]
  proliferation of T cells: stimulated to proliferate

B1: region 161-243: region of GAD 65, residues 161-243, tested as overlapping peptides (peptide, UniProt Q05329 161-243, looked up, fragment)
chain: MHCQTTLKYAIKTGHPRYFNQLSTGLDMVGLAADWLTSTANTNMFTYEIAPVFVLLEYVTLKKMREIIGWPGGSGDGIFSPGG
modifications: tested as overlapping peptides
notes: region of GAD 65, residues 161-243, tested as overlapping peptides
[2]
  recognition by T cells of Type 1 diabetic patients versus controls: recognized by T cells from both normals and IDDM patients
